Experimental data taken from patent US20250179057A1, “MEK IMMUNE ONCOLOGY INHIBITORS AND THERAPEUTIC USES THEREOF” (Immuneering Corporation, priority 2022, published 2025).
Counter-ions that a name gives are not always drawn. Blank lines part the entries; values can stand above or below the compound they belong to.

Experiments:
[1] = Plasma stability, human plasma (K2EDTA); assay type: in vitro ADME; conditions: 2 μM; for % Remaining at T120 / half-life at 2 μM / T1/2: human plasma, anti-coagulant K2-EDTA; for % Remaining at T120: 120 min; for half-life at 2 μM / T1/2: 10 to 120 min; for half-life at 2 μM: read-out: T1/2
Description: (§1) Individual stock solutions of propantheline and lovastatin were prepared at 10 mM in DMSO and were further diluted to 2 mM with DMSO.
(§2) Frozen matrices (Balb/c mouse, Wistar Han rat, Beagle dog, and human plasma containing K2EDTA as anti-coagulant) were thawed and centrifuged at 3100 rpm for 10 minutes at 4° C. to remove particulates. The lipid layer was then removed, and the supernatant was transferred to a new tube without disturbing the pellet. After the matrices were incubated at 37° C. for at least 10 minutes, the pH of each matrix was adjusted to pH 7.4, using 10% phosphoric acid or 1N sodium hydroxide as necessary. Test and control article stock solutions were spiked (2 μL) into matrix (1.998 mL) and mixed to final assay concentration of […]. Duplicate 30-μL aliquots of spiked plasma were transferred to matrix tubes in 96-well plate immediately after spiking for timepoints of 0, 30, 60, 120, 240, and 360 minutes. These tubes were then incubated at 37° C. with shaking and at each timepoint, the corresponding tubes containing samples were quenched with 180 μL of cold acetonitrile containing the internal standards. The quenched samples were vortex-mixed briefly and stored refrigerated. After the final time point (360 minutes), the plates with all quenched samples were vortex-mixed for 10 minutes and then centrifuged at 3100 rpm for 10 minutes at 4° C. to sediment the precipitated protein. The supernatant (50 μL) was transferred to a clean 96-well plate and diluted with 100 μL of water. The plates were stored refrigerated until analysis.
(§3) Data Analysis: Peak area ratios for IS-normalized test article and control article counts were used to calculate the percent remaining relative to the time zero (T0) value. As appropriate, results were plotted and further analyzed to calculate half-life (T1/2) values.
(§4) Mean peak area ratios were used to calculate the % remaining relative to the T0 value:
(§5) In this study, human, cynomolgus monkey, beagle dog, wistar hannover rat, and balb/c plasma stability was determined. Table 28 describes the results of the human plasma stability at 2 μM concentration and anti-coagulant K2-EDTA from 10 to 120 min. Table 29 describes the results of the cynomolgus monkey plasma stability at 2 μM concentration and anti-coagulant K2-EDTA. Table 30 describes the results of the beagle dog plasma stability at 2 μM concentration and anti-coagulant K2-EDTA. Table 31 describes the results of the wistar hannover rat plasma stability at 2 μM concentration and anti-coagulant K2-EDTA. Table 32 describes the results of the balb/c plasma stability at 2 μM concentration and anti-coagulant K2-EDTA.

[2] = Plasma stability, mouse plasma (Balb/c; Table 5 head CD-1 Mouse); assay type: in vitro ADME; conditions: balb/c plasma, 2 μM, anti-coagulant K2-EDTA; for % Remaining at T120: 120 min; for half-life at 2 μM: mouse, pH 7.4, read-out: T1/2
Description: as §1, §2, §3, §4, §5

[3] = tested on: phospho-ERK in A549 (KRAS G12S) cells; experiment: Cell-based pERK (pERK:tERK) in A549 cells; parameters: A549-pERK 10 uM, 2 h: unit not given here; conditions: for activity at 0.01 µM: A549, 2 h, read-out: A549-pERK (10 nM, 2 h); for pERK:tERK (10 nM 2 h A549): Phospho-ERK Screen in A549 (KRAS G12S), head 10 nM 2 h, title 10 μM for 2 hours; for A549-pERK (10 nM, 2 h): phospho- to total protein ratio normalized to DMSO control (Table 9); for IC50: A549, 12-point dose
How it was run: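 Readout was pERK versus tERK by Western blot with IRDye-labelled secondary antibodies, imaged and quantified on a LI-COR Odyssey. Lysates were loaded at 1 mg/mL protein after Bradford estimation.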

balb/c mouse hepatocytes = experiment: Hepatocyte stability, balb/c mouse; assay type: in vitro ADME; conditions: 2 μM, 0.5 million cells/ml
Description: In this study, human, cynomolgus monkey, beagle dog, wistar hannover rat, and balb/c mouse hepatocyle stability was determined.

SMILES: CCN(C)Cc1c(Cc2cccc(NS(=O)(=O)NC)c2Cl)c(=O)oc2cc(OC(=O)N(C)C)ccc12 [Compound 245, 3-(2-chloro-3-((N-methylsulfamoyl)amino)benzyl)-4-((ethyl(methyl)amino)methyl)-2-oxo-2H-chromen-7-yl dimethylcarbamate]
% Remaining at T120 [1]: 106.8%
half-life at 2 μM ([1]; pH 7.4): > 2 h
% Remaining at T120 [2]: 81.9%
half-life at 2 μM [2]: 7.98 h
activity at 0.01 µM ([3]; Homo sapiens): 68.8%
pERK:tERK (10 nM 2 h A549) [3]: 69
% Remaining At T120 (balb/c mouse hepatocytes): 52.8%

SMILES: CNS(=O)(=O)Nc1cccc(Cc2c(CN(C)C)c3ccc(OC(=O)N(C)C)cc3oc2=O)c1Cl [Compound 274, 3-(2-chloro-3-((N-methylsulfamoyl)amino)benzyl)-4-((dimethylamino)methyl)-2-oxo-2H-chromen-7-yl dimethylcarbamate]
% Remaining at T120 [1]: 121.2%
half-life at 2 μM ([1]; pH 7.4): > 2 h
% Remaining at T120 [2]: 92.7%
half-life at 2 μM [2]: 126 h
% Remaining At T120 (balb/c mouse hepatocytes): 64.3%

SMILES: CNS(=O)(=O)Nc1cccc(Cc2c(CN3CCNCC3)c3ccc(OC(=O)N(C)C)cc3oc2=O)c1Cl [Compound 246, 3-(2-chloro-3-((N-methylsulfamoyl)amino)benzyl)-2-oxo-4-(piperazin-1-ylmethyl)-2H-chromen-7-yl dimethylcarbamate hydrochloride]
% Remaining at T120 [1]: 105.7%
half-life at 2 μM ([1]; pH 7.4): > 2 h
% Remaining at T120 [2]: 94.5%
half-life at 2 μM [2]: 18.5 h
activity at 0.01 µM ([3]; Homo sapiens): 19%
pERK:tERK (10 nM 2 h A549) [3]: 19
% Remaining At T120 (balb/c mouse hepatocytes): 73.6%

SMILES: CNS(=O)(=O)Nc1cccc(Cc2c(CN(C)C)c3cc(F)c(OC(=O)N(C)C)cc3oc2=O)c1F [Compound 25]
T1/2 [1]: >2 h
% Remaining at T120 [1]: 112.1%
T1/2 [2]: >2 h
% Remaining at T120 [2]: 99.9%
A549-pERK (10 nM, 2 h) ([3]; 2 h): 66.2
pERK:tERK (10 nM 2 h A549) [3]: 66 (n = 2)
% Remaining At T120 (balb/c mouse hepatocytes): 72.0%
CLint (L/hr/kg) (balb/c mouse hepatocytes): 3.88 L/h/kg
CLint (mL/min/kg) (balb/c mouse hepatocytes): 64.7 mL/min/kg
T1/2 (balb/c mouse hepatocytes): 4.22 h

SMILES: CCN(C)Cc1c(Cc2cccc(NS(=O)(=O)NC)c2F)c(=O)oc2cc(OC(=O)N(C)C)c(F)cc12 [Compound 238]
% Remaining at T120 [1]: 95.7%
half-life at 2 μM ([1]; pH 7.4): 68.6 h
% Remaining at T120 [2]: 57.5%
half-life at 2 μM [2]: 2.67 h
activity at 0.01 µM ([3]; Homo sapiens): 68.4%
% Remaining At T120 (balb/c mouse hepatocytes): 57.3%

SMILES: Cn1cnc2c(F)c(Nc3ccc(Br)cc3Cl)c(C(=O)NOCCO)cc21 [Reference-1, Selumetinib]
Human (% Reamining @2 hour) ([1]; human, 2 h, pH 7.4): 98.1%
A549 pERK:tERK ratio [10 nM; 2 hr] [3]: 0.56
IC50 ([3]; Homo sapiens): 7.2 nM

SMILES: CNS(=O)(=O)Nc1cccc(Cc2c(CN3CCNCC3)c3cc(Cl)c(OC(=O)N(C)C)cc3oc2=O)c1Cl [Compound 256, 6-chloro-3-(2-chloro-3-((N-methylsulfamoyl)amino)benzyl)-2-oxo-4-(piperazin-1-ylmethyl)-2H-chromen-7-yl dimethylcarbamate hydrochloride]
% Remaining at T120 [1]: 84.8%
half-life at 2 μM ([1]; pH 7.4): 14 h
% Remaining at T120 [2]: 86.8%
half-life at 2 μM [2]: 9.77 h
pERK:tERK (10 nM 2 h A549) [3]: 14
% Remaining At T120 (balb/c mouse hepatocytes): 65.6%

SMILES: CNS(=O)(=O)Nc1nccc(Cc2c(CN(C)C)c3ccc(OC(=O)N(C)C)cc3oc2=O)c1F [Compound 124]
T1/2 [1]: 10.5 h
% Remaining at T120 [1]: 85.0%
T1/2 [2]: >2 h
% Remaining at T120 [2]: 105.4%
A549-pERK (10 nM, 2 h) ([3]; 2 h): 94.6
% Remaining At T120 (balb/c mouse hepatocytes): 55.1%
CLint (L/hr/kg) (balb/c mouse hepatocytes): 7.04 L/h/kg
CLint (mL/min/kg) (balb/c mouse hepatocytes): 117 mL/min/kg
T1/2 (balb/c mouse hepatocytes): 2.33 h

SMILES: CCS(=O)(=O)Nc1cccc(Cc2c(CN3CCNCC3)c3cc(Cl)c(OC(=O)N(C)C)cc3oc2=O)c1Cl [Compound 257, 6-chloro-3-(2-chloro-3-(ethylsulfonamido)benzyl)-2-oxo-4-(piperazin-1-ylmethyl)-2H-chromen-7-yl dimethylcarbamate hydrochloride]
% Remaining at T120 [1]: 96.3%
half-life at 2 μM ([1]; pH 7.4): 173 h
% Remaining at T120 [2]: 87.5%
half-life at 2 μM [2]: 9.77 h
pERK:tERK (10 nM 2 h A549) [3]: 17
% Remaining At T120 (balb/c mouse hepatocytes): 66.7%

SMILES: CCCS(=O)(=O)Nc1cccc(Cc2c(CN3CCNCC3)c3cc(Cl)c(OC(=O)N(C)C)cc3oc2=O)c1F [Compound 167]
T1/2 [1]: 15.8 h
% Remaining at T120 [1]: 84.6%
T1/2 [2]: >2 h
% Remaining at T120 [2]: 100.5%
pERK:tERK (10 nM 2 h A549) [3]: 27 (n = 2)
% Remaining At T120 (balb/c mouse hepatocytes): 52.5%
CLint (L/hr/kg) (balb/c mouse hepatocytes): 7.61 L/h/kg
CLint (mL/min/kg) (balb/c mouse hepatocytes): 127 mL/min/kg
T1/2 (balb/c mouse hepatocytes): 2.15 h

SMILES: CNS(=O)(=O)Nc1cccc(Cc2c(CN(C)C)c3ccc(OC(=O)N(C)C)cc3oc2=O)c1F [Compound 9]
T1/2 [1]: >2 h
% Remaining at T120 [1]: 99.8%
T1/2 [2]: 8.78 h
% Remaining at T120 [2]: 86.0%
A549-pERK (10 nM, 2 h) ([3]; 2 h): 63.0
A549 pERK:tERK ratio [10 nM; 2 hr] [3]: 0.62
A549-pERK 10 uM, 2 h ([3]; 10 uM, 2 h, phospho- to total protein ratio normalized to DMSO control): 1.205 (mean, n = 2)
IC50 [3]: 19.8 nM
pERK:tERK (10 nM 2 h A549) [3]: 65 (n = 27)
% Remaining At T120 (balb/c mouse hepatocytes): 73.8%
CLint (L/hr/kg) (balb/c mouse hepatocytes): 3.58 L/h/kg
CLint (mL/min/kg) (balb/c mouse hepatocytes): 59.7 mL/min/kg
T1/2 (balb/c mouse hepatocytes): 4.57 h

Human (% Reamining @2 hour) ([1]; plasma, 2 hour): 91.1%
IC50 ([3]; Homo sapiens): 7.2 nM
SMILES: CNS(=O)(=O)Nc1nccc(Cc2c(C)c3ccc(Oc4ncccn4)cc3oc2=O)c1F [Reference-2, reference compound]

SMILES: CCS(=O)(=O)Nc1cccc(Cc2c(CN(C)C)c3ccc(OC(=O)N(C)C)cc3oc2=O)c1F [Compound 120]
T1/2 [1]: >2 h
% Remaining at T120 [1]: 123.8%
T1/2 [2]: 238.68 h
% Remaining at T120 [2]: 94.2%
A549-pERK (10 nM, 2 h) ([3]; 2 h): 77.2
% Remaining At T120 (balb/c mouse hepatocytes): 71.4%
CLint (L/hr/kg) (balb/c mouse hepatocytes): 3.98 L/h/kg
CLint (mL/min/kg) (balb/c mouse hepatocytes): 66.3 mL/min/kg
T1/2 (balb/c mouse hepatocytes): 4.12 h

SMILES: CNS(=O)(=O)Nc1cccc(Cc2c(CN3CCNCC3)c3cc(F)c(OC(=O)N(C)C)cc3oc2=O)c1F [Compound 134]
T1/2 [1]: >2 h
% Remaining at T120 [1]: 107.8%
T1/2 [2]: 46.85 h
% Remaining at T120 [2]: 100.2%
A549-pERK (10 nM, 2 h) ([3]; 2 h): 33.1
% Remaining At T120 (balb/c mouse hepatocytes): 70.2%
CLint (L/hr/kg) (balb/c mouse hepatocytes): 4.18 L/h/kg
CLint (mL/min/kg) (balb/c mouse hepatocytes): 69.7 mL/min/kg
T1/2 (balb/c mouse hepatocytes): 3.92 h
